# Test results published in US20230257423A1, “COMPOSITIONS FOR TREATING EPITHELIAL BARRIER FUNCTION DISORDERS” (ENTEROME, priority 2020, published 2023).
# How the values were obtained:
# [1] = system: Monocyte-derived Dendritic Cells; assay: AlphaLISA IL10 secretion by dendritic cells; assay type: cell-based, human; conditions: for IL-10 secretion from DCs in co-stimulation with TLR activators: LPS 100 ng/ml or FIMH 10 μg/ml, mean of 3 MoDC donors, FIG. 9
# Experimental: Dendritic Cells (DCs) were prepared from PBMC (Buffy Coat) and differentiated with GM-CSF (D 1:10000; =5 μl/50 ml) and IL-4 (D 1:5000; =10 μl/50 ml).
# In this test, 30,000 cells/well were seeded in complete IMDM media (2 mM L-glutamine, 50 IU/mL penicillin, […] streptomycin, 10 mM Hepes and 10% heat-inactivated foetal calf serum) in 96 wells plates 24h before activation (and kept in a humidified 5% CO2 atmosphere at 37° C.). Pre-purified, or HPLC-eluted, fractions as well as EB7020 chemically synthetized and various controls were added to reporter cells at 10% vol/vol to a final volume of 100 μl.
# AlphaLisa (Perkin Elmer) was realized on supernatant according the supplier protocol (for complete references: AlphaLISA® Research Reagents Human Interleukin 10 (IL10) Kit Product No.: AL218 C/F sold by PerkinElmer).
# [2] = system: PBMC derived DCs; assay: Array (transcriptomics) on PBMC derived DCs; assay type: cell-based, human; design: SLC39A14 gene expression / IL6 gene expression / CCL1 gene expression / CCL8 gene expression / TNF-α gene expression: unit not given here; conditions: 3 donors, 6h, TNF-α 10 ng/ml, PHA 3 μg/ml, LPS 3 ng/ml, PAM3CSK4 10 ng/ml, MDP 5 μg/ml
# Experimental: DCs from three different donors were seeded at 1.0×10^5 DCs/well in a 48 well plate in 0.5 ml of complete IMDM. The effect of the active fractions of the F4 clone was compared to the same fractions purified from the negative control (pBAD-fractions). TNF-α (10 ng/ml), PHA (3 μg/ml), LPS (3 ng/ml), PAM3CSK4 (10 ng/ml), and MDP 5 μg/ml were used as control.
# Data were generated and analyzed using Spotfire software.
# Transcriptomics was carried out on PBMC derived DCs from 3 donors.
# DCs were stimulated (6h) with: • TNFα, PHA, LPS, PAM3CSK4, MDP=Positive control • F13, F25=HPLC fractions obtained from the complemented and functional F4D5-MsbA1-A2 clone • F4D5-pBAD-F13, F4D5-pBAD-F25=HPLC fractions obtained from the F4D5-pBADclone (negative control)
# Data analysis was realised using TIBCO Spotfire software. The F4 fractions (from both positive and negative clones) were analysed individually and compared to known agonists (TNFα, PHA, LPS, PAM3CSK4, MDP).
Compound,IL-10 secretion from DCs in co-stimulation with TLR activators [1],"IL-10 secretion from human DCs ([1]; chemically synthesized compound, in presence of LPS, FIG. 8)",CCL1 gene expression [2],CCL8 gene expression [2],IL6 gene expression [2],PERP gene expression [2],PMP22 gene expression [2],SLC39A14 gene expression [2],TNF-α gene expression [2]
"CC(=O)NC1C(OP(=O)(O)O)OC(CO)C(O)C1OC(C)C(=O)NC(C)C(=O)NC(CCC(=O)NC(CCCC(N)C(=O)O)C(=O)O)C(=O)O (stereo not shown) [EB7020, M-Tri-DAP monophosphate]",Synergy,IL-10 secretion is induced,,,,,,,
"CC(=O)N[C@H]1[C@@H](OP(=O)(O)OP(=O)(O)OC[C@H]2O[C@@H](n3ccc(=O)[nH]c3=O)[C@H](O)[C@@H]2O)O[C@H](CO)[C@@H](O)[C@@H]1O[C@H](C)C(=O)N[C@@H](C)C(=O)N[C@H](CCC(=O)N[C@@H](CCC[C@@H](N)C(=O)O)C(=O)O)C(=O)O [EB7021, UDP-M-Tri-DAP]",Synergy,,,,,,,,
"CC(=O)NC1C(OP(=O)(O)OP(=O)(O)OC[C@H]2O[C@@H](n3ccc(=O)[nH]c3=O)C(O)C2O)OC(CO)C(O)C1OC(C)C(=O)NC(C)C(=O)NC(CCC(=O)NC(CCCC(N)C(=O)O)C(=O)NC(C)C(=O)O)C(=O)O (stereo partly shown) [EB7022, UDP-M-Tetrapeptide]",Synergy,,,,,,,,
CC(=O)N[C@@H]1[C@@H](O[C@H](C)C(=O)N[C@@H](C)C(=O)N[C@H](CCC(=O)O)C(N)=O)[C@H](O)[C@@H](CO)O[C@H]1O [MDP],,,3.1,4.1,9.4,1.6,1.0,0.9,3.5
PAM3CSK4,,,30.6,64.8,718.1,2.6,1.0,1.6,28.4
TNF-α,,,4.2,11.2,32.9,1.0,0.8,1.2,5.6
